Laboratory results reported in publication PMC8429728, “TNK1 is a ubiquitin-binding and 14-3-3-regulated kinase that can be targeted to block tumor growth” (Nature Communications, 2021).
Read-outs that look alike come from different tables or passages of the source.

Assays:
Experiment in all cases: biochemical
Set-up in all cases: Reaction Biology 371-kinase panel at Km ATP, per cent enzyme activity relative to DMSO, single dose in duplicate
AKT1 = AKT1 (Homo sapiens, UniProt P31749); conditions: duplicate measurements, Km ATP; read-out: % Enzyme Activity (relative to DMSO controls) / TP-0005801 (0.3µM) / Data 1
Procedure, shortened: (§1)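 Compound screened at 300 nM in vitro across a 371-kinase panel. Enzyme activity expressed as % of DMSO controls. IC50 values came from sigmoidal variable-slope dose-response fits with the bottom fixed at 0.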

Aurora B = target: T1, Aurora B (Homo sapiens, UniProt Q96GD4); conditions: duplicate measurements, Km ATP
T1 construct: gene AURKB
Procedure, shortened: as §1

BMX/ETK = BMX/ETK (Homo sapiens, UniProt P51813); conditions: duplicate measurements, Km ATP
Procedure, shortened: as §1

BRSK2 = BRSK2 (Homo sapiens, UniProt Q8IWQ3); conditions: duplicate measurements, Km ATP
Procedure, shortened: as §1

CK1d = target: T2, CK1d (Homo sapiens, UniProt P48730); conditions: duplicate measurements, Km ATP
T2 construct: gene CSNK1D
Procedure, shortened: as §1

CTK/MATK = CTK/MATK (Homo sapiens, UniProt P42679); conditions: duplicate measurements, Km ATP
Procedure, shortened: as §1

DAPK2 = DAPK2 (Homo sapiens, UniProt Q9UIK4); conditions: duplicate measurements, Km ATP
Procedure, shortened: as §1

EPHA3 = EPHA3 (Homo sapiens, UniProt P29320); conditions: duplicate measurements, Km ATP
Procedure, shortened: as §1

FYN = FYN (Homo sapiens, UniProt P06241); conditions: duplicate measurements, Km ATP
Procedure, shortened: as §1

KHS/MAP4K5 = KHS/MAP4K5 (Homo sapiens, UniProt Q9Y4K4); conditions: duplicate measurements, Km ATP
Procedure, shortened: as §1

MRCKa/CDC42BPA = MRCKa/CDC42BPA (Homo sapiens, UniProt Q5VT25); conditions: duplicate measurements, Km ATP
Procedure, shortened: as §1

MYO3A = MYO3A (Homo sapiens, UniProt Q8NEV4); conditions: duplicate measurements, Km ATP
Procedure, shortened: as §1

PKCb2 = target: T3, PKCb2 (Homo sapiens, UniProt P05771); conditions: duplicate measurements, Km ATP
T3 construct: gene PRKCB; isoform beta II
Procedure, shortened: as §1

PKG1a = target: T4, PKG1a (Homo sapiens, UniProt Q13976); conditions: duplicate measurements, Km ATP
T4 construct: gene PRKG1; isoform alpha
Procedure, shortened: as §1

PKG1b = target: T5, PKG1b (Homo sapiens, UniProt Q13976); conditions: duplicate measurements, Km ATP
T5 construct: gene PRKG1; isoform beta
Procedure, shortened: as §1

RSK3 = target: T6, RSK3 (Homo sapiens, UniProt Q15349); conditions: duplicate measurements, Km ATP
T6 construct: gene RPS6KA2
Procedure, shortened: as §1

STK21/CIT = STK21/CIT (Homo sapiens, UniProt O14578); conditions: duplicate measurements, Km ATP
Procedure, shortened: as §1

TESK2 = TESK2 (Homo sapiens, UniProt Q96S53); conditions: duplicate measurements, Km ATP
Procedure, shortened: as §1

TYRO3/SKY = TYRO3/SKY (Homo sapiens, UniProt Q06418); conditions: duplicate measurements, Km ATP; read-out: % Enzyme Activity (relative to DMSO controls) / TP-0005801 (0.3µM) / Data 1
Procedure, shortened: as §1

VRK2 = VRK2 (Homo sapiens, UniProt Q86Y07); conditions: duplicate measurements, Km ATP
Procedure, shortened: as §1

[1] = read-out: % Enzyme Activity (relative to DMSO controls) / TP-0005801 (0.3µM) / Data 1
[2] = read-out: % Enzyme Activity (relative to DMSO controls) / TP-0005801 (0.3µM) / Data 2

Chain of EPHA3 (P29320 whole entry): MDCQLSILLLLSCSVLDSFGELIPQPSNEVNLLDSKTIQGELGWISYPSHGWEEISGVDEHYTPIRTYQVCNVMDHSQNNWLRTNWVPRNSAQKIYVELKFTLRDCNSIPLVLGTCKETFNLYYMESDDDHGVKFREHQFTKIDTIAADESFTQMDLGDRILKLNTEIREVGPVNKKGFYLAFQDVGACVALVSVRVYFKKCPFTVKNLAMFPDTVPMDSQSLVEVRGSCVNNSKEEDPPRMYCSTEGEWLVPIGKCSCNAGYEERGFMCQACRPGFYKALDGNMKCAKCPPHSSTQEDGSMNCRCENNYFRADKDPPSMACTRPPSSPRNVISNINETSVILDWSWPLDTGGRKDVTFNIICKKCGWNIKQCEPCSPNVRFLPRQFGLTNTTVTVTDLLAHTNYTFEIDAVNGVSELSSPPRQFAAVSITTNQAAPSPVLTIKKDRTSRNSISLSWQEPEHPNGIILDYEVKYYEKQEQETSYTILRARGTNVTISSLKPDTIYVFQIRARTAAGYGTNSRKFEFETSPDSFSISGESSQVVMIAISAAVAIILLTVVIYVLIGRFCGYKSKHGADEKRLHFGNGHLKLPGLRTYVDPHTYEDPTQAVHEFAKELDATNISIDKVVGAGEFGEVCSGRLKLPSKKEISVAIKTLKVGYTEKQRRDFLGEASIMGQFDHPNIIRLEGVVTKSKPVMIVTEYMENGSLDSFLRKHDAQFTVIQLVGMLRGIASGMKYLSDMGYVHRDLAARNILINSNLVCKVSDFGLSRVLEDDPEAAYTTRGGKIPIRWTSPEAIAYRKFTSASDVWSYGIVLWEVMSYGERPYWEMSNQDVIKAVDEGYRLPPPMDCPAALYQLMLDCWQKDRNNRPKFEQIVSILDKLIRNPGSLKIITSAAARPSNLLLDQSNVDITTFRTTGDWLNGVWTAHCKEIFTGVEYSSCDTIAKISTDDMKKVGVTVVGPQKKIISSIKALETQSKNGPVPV
T1 sequence (Q96GD4 whole entry): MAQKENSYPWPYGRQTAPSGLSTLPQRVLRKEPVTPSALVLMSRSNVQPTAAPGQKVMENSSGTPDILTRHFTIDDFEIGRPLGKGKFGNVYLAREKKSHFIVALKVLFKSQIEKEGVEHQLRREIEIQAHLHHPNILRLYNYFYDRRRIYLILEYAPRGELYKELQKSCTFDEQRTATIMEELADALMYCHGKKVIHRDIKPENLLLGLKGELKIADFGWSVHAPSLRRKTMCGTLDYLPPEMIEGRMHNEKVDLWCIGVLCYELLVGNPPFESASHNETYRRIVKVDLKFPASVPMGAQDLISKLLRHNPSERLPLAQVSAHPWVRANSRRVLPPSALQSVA
T3 sequence (P05771 whole entry, canonical isoform): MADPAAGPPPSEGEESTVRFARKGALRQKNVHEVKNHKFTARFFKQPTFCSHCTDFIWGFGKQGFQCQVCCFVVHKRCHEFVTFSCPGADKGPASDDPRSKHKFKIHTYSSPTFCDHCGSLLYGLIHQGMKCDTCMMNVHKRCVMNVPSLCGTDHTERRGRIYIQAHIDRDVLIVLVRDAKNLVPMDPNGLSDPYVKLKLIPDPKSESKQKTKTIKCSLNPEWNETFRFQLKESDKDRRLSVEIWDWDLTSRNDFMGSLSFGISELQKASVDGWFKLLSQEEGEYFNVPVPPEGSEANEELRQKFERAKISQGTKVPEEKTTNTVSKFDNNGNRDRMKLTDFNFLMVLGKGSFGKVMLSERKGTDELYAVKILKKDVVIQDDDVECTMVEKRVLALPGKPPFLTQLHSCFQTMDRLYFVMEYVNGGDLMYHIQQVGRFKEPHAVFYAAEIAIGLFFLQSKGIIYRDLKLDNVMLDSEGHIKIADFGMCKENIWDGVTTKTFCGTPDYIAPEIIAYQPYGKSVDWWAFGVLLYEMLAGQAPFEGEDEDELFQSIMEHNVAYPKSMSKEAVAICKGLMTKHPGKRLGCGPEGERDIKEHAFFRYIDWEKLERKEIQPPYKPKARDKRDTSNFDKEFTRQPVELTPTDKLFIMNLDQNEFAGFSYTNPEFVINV
Chain of VRK2 (Q86Y07 whole entry): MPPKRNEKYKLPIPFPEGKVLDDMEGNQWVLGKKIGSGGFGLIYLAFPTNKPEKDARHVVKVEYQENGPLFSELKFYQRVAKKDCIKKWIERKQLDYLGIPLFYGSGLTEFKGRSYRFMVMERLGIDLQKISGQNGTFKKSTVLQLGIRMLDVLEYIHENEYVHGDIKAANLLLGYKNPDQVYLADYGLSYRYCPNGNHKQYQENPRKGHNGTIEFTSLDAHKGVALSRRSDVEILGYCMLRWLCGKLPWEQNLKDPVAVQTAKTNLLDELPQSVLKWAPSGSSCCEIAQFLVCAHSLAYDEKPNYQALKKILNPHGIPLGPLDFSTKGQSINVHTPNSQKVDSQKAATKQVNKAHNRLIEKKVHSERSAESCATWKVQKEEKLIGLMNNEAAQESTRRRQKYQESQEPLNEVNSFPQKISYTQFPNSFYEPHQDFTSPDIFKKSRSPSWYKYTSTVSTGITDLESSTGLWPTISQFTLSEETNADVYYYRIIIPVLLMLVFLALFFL
Chain of TESK2 (Q96S53 whole entry): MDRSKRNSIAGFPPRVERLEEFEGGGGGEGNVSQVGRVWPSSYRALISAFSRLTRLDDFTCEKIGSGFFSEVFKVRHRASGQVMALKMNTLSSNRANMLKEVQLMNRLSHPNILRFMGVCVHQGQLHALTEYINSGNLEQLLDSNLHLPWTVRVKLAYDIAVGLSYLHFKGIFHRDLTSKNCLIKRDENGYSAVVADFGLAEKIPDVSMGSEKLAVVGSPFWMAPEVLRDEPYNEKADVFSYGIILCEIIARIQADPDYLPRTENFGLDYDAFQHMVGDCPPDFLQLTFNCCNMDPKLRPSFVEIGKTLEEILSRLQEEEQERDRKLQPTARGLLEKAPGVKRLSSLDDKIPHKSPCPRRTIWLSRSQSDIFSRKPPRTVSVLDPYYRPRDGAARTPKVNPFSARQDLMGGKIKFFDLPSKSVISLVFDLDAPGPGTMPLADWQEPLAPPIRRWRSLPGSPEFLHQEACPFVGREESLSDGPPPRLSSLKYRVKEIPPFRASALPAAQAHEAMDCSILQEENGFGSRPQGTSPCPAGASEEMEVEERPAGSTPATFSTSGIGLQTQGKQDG
Chain of DAPK2 (Q9UIK4 whole entry): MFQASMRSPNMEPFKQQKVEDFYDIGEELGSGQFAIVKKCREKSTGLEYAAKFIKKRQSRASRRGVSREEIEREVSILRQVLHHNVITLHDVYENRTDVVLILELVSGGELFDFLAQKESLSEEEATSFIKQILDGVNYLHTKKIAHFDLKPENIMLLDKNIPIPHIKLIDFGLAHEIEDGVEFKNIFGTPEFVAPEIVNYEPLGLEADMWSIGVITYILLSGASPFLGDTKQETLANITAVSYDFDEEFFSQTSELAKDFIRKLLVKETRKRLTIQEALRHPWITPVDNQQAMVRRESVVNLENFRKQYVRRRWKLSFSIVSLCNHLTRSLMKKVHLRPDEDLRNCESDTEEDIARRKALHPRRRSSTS
Chain of KHS/MAP4K5 (Q9Y4K4 whole entry): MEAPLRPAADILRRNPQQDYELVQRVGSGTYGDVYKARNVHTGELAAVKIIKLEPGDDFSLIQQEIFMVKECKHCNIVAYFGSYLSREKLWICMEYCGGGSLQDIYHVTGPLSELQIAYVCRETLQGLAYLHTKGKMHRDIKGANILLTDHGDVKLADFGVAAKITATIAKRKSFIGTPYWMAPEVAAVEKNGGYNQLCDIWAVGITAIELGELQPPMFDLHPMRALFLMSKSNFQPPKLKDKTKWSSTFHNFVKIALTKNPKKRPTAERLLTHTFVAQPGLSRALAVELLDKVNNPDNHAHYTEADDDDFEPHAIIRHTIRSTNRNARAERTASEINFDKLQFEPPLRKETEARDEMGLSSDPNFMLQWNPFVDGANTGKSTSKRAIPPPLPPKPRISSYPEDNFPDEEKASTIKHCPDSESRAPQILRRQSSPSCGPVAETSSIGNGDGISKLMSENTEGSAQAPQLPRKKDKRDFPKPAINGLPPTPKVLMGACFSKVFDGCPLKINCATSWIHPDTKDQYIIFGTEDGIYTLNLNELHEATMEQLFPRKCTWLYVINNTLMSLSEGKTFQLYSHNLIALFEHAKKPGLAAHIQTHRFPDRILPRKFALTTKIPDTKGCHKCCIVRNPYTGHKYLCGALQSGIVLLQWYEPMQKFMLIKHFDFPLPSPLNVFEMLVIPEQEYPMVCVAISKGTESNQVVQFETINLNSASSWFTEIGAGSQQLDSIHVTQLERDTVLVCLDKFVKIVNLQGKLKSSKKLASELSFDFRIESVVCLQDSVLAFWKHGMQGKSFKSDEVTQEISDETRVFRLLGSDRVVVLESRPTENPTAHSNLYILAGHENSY
Chain of CTK/MATK (P42679 whole entry): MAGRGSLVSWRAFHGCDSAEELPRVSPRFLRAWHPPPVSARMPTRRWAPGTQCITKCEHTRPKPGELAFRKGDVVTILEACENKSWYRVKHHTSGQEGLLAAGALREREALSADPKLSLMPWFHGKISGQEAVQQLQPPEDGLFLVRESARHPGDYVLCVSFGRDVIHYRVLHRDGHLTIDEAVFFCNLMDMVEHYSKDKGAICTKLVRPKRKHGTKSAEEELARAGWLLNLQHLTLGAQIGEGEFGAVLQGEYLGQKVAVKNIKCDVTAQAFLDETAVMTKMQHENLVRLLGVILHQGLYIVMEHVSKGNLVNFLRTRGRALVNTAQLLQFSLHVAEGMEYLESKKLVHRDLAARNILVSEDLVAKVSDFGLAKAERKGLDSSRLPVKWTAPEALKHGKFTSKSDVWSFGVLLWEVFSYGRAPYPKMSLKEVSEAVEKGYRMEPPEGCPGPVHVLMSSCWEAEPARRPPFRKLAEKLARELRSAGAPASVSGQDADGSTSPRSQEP

remaining activity at 0.3 µM (AKT1): 105%
remaining activity at 0.3 µM (Aurora B; [1]): 86.7%
remaining activity at 0.3 µM (Aurora B; [2]): 83.9%
remaining activity at 0.3 µM (BMX/ETK; [1]): 115%
remaining activity at 0.3 µM (BMX/ETK; [2]): 114%
remaining activity at 0.3 µM (BRSK2; [1]): 119%
remaining activity at 0.3 µM (BRSK2; [2]): 116%
remaining activity at 0.3 µM (CK1d; [1]): 101%
remaining activity at 0.3 µM (CK1d; [2]): 98.4%
remaining activity at 0.3 µM (CTK/MATK; [1]): 108%
remaining activity at 0.3 µM (CTK/MATK; [2]): 106%
remaining activity at 0.3 µM (DAPK2; [1]): 95.1%
remaining activity at 0.3 µM (DAPK2; [2]): 93.2%
remaining activity at 0.3 µM (EPHA3; [1]): 103%
remaining activity at 0.3 µM (EPHA3; [2]): 97.5%
remaining activity at 0.3 µM (FYN; [1]): 108%
remaining activity at 0.3 µM (FYN; [2]): 105%
remaining activity at 0.3 µM (KHS/MAP4K5; [1]): 90%
remaining activity at 0.3 µM (KHS/MAP4K5; [2]): 87%
remaining activity at 0.3 µM (MRCKa/CDC42BPA; [1]): 104%
remaining activity at 0.3 µM (MRCKa/CDC42BPA; [2]): 100%
remaining activity at 0.3 µM (MYO3A; [1]): 69.8%
remaining activity at 0.3 µM (MYO3A; [2]): 66.3%
remaining activity at 0.3 µM (PKCb2; [1]): 94.4%
remaining activity at 0.3 µM (PKCb2; [2]): 93.6%
remaining activity at 0.3 µM (PKG1a; [1]): 87.6%
remaining activity at 0.3 µM (PKG1a; [2]): 85.6%
remaining activity at 0.3 µM (PKG1b; [1]): 51%
remaining activity at 0.3 µM (PKG1b; [2]): 50%
remaining activity at 0.3 µM (RSK3; [1]): 80.3%
remaining activity at 0.3 µM (RSK3; [2]): 79.2%
remaining activity at 0.3 µM (STK21/CIT; [1]): 107%
remaining activity at 0.3 µM (STK21/CIT; [2]): 105%
remaining activity at 0.3 µM (TESK2; [1]): 92.8%
remaining activity at 0.3 µM (TESK2; [2]): 90.1%
remaining activity at 0.3 µM (TYRO3/SKY): 105%
remaining activity at 0.3 µM (VRK2; [1]): 96%
remaining activity at 0.3 µM (VRK2; [2]): 93.9%
Structure (SMILES): COc1cc(N2CCN(C)CC2)c(C)cc1Nc1ncc(Br)c(Nc2cccnc2N(C)C)n1 [TP-5801]
